Experimental data reported in PubChem BioAssay (NCI).
Values joined by “and” are separate entries in the source; they are usually repeats but may differ in a detail not shown here. Equal values may be shown once.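 Cells were grown in 96-well plates and exposed to each compound for 48 hours at five concentrations; endpoints were interpolated linearly between bracketing concentrations, or set to the highest concentration if not reached. The concentration for 50% growth inhibition is given as GI50. TGI marks complete inhibition of growth.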

Key:
Test in all cases: NCI anticancer screen, dose series, 48 h
SW-620 colon = system: SW-620 colon
LOX IMVI melanoma = system: LOX IMVI melanoma
M14 melanoma = system: M14 melanoma
SF-268 CNS = system: SF-268 CNS
HCT-116 colon = system: HCT-116 colon
MCF7 breast = system: MCF7 breast
K-562 leukemia = system: K-562 leukemia
NCI-H23 lung = system: NCI-H23 lung
DU-145 prostate = system: DU-145 prostate
NCI/ADR-RES ovarian = system: NCI/ADR-RES ovarian

SMILES	GI50 (SW-620 colon)	TGI (SW-620 colon)	GI50 (LOX IMVI melanoma)	TGI (LOX IMVI melanoma)	GI50 (M14 melanoma)	TGI (M14 melanoma)	GI50 (SF-268 CNS)	TGI (SF-268 CNS)	GI50 (HCT-116 colon)	TGI (HCT-116 colon)	GI50 (MCF7 breast)	TGI (MCF7 breast)	GI50 (K-562 leukemia)	TGI (K-562 leukemia)	GI50 (NCI-H23 lung)	TGI (NCI-H23 lung)	GI50 (DU-145 prostate)	TGI (DU-145 prostate)	GI50 (NCI/ADR-RES ovarian)	TGI (NCI/ADR-RES ovarian)
COc1ccc(/C=C2\COc3ccc(O)c(O)c3C2=O)c(OC)c1OC	2.77 µM	9.53 µM	1.78 µM	3.49 µM	2.39 µM	8.93 µM	3.49 µM	21.3 µM	1.75 µM	3.96 µM	2.65 µM	86.5 µM	2.11 µM	> 100 µM	3.22 µM	14.5 µM	3.64 µM	26 µM		
Cc1cc(N2CCCCC2)nc(NC2CCCC(Nc3ccnc4cc(Cl)ccc34)C2)n1 (configuration not stated)	1.49 µM	3.14 µM			1.66 µM	3.29 µM			1.02 µM	2.21 µM			0.316 µM	1.23 µM			1.45 µM	3.1 µM		
OCC[N+]12CCCN1CCC2		> 100 µM		> 100 µM		> 100 µM		> 100 µM		> 100 µM				> 100 µM		> 100 µM				
COc1ccc(C(=O)c2c3cc(OC)c(OC)c(OC)c3cc[n+]2C)cc1		> 100 µM				> 100 µM		> 100 µM		> 100 µM				> 100 µM		66.5 µM				
Cn1c2c(c3ccccc31)CCN(CCCCN1CCN(c3ccccc3)CC1)C2=O		> 56.2 µM		32.1 µM		16.9 µM		> 78.4 µM		> 100 µM		63.2 µM		> 56 µM		> 76.8 µM		> 100 µM		
O=C(CCc1ccccc1)NS(=O)(=O)c1ccccc1		> 100 µM		> 100 µM		> 100 µM		> 100 µM		> 100 µM				> 100 µM		> 100 µM				
CC(C)(C)C(=O)Nc1cccc2oc(-c3ccccc3)cc12		> 100 µM				> 100 µM								> 100 µM		> 100 µM				
NC1CCCCC1N.O=C1C=C/C(=C(/c2ccc(O)c(Br)c2)c2ccccc2S(=O)(=O)[O-])C=C1Br.O=C1C=C/C(=C(/c2ccc(O)c(Br)c2)c2ccccc2S(=O)(=O)[O-])C=C1Br.[Pt+4]	0.578 µM	52.2 µM	3.18 µM	> 100 µM	7.77 µM	> 100 µM	0.885 µM	> 100 µM	0.79 µM	> 100 µM			8.79 µM	> 100 µM	2.88 µM	> 100 µM				
COc1ccc(C2CC(c3ccc(Nc4ccnc5cc(Cl)ccc45)cc3)=NN2C=O)cc1 (configuration not stated)	35.8 µM	> 100 µM	2.32 µM	15.6 µM	7.67 µM	> 100 µM	> 100 µM	> 100 µM	9.97 µM	> 100 µM	8.78 µM	> 100 µM			50.6 µM	> 100 µM	38 µM	> 100 µM	7.05 µM	> 100 µM
COC(=O)c1ccc(/C=C(\c2ccc([N+](=O)[O-])o2)S(=O)(=O)c2ccc(NC(C)=O)cc2)o1		11.8 µM				15.4 µM		30.9 µM		8.39 µM		29.3 µM		18.1 µM		28.3 µM		21.9 µM		30.5 µM
NS(=O)(=O)c1ccc(NC(=O)Cc2nc3ccccc3s2)cc1		31.7 µM				29.4 µM		30.7 µM		31 µM				59.4 µM		29.5 µM				
COc1cccc(/C=C/C(=O)c2sc(C(N)=S)nc2C)c1O		86.3 µM		56.7 µM		> 100 µM		> 100 µM		> 92.5 µM				> 100 µM		> 100 µM				
O=C(O)c1ccc(C(O)(c2ccccc2)c2ccccc2)cc1				> 100 µM		> 100 µM		> 100 µM		> 100 µM		> 100 µM		> 100 µM		> 100 µM		> 100 µM		> 100 µM
N#CCC(=O)N/N=C1/C(=O)N(c2cc(Cl)ccc2Cl)C(=O)C(=O)C1c1nc2ccccc2s1 (configuration not stated)		> 100 µM		> 100 µM		> 100 µM		> 100 µM		> 100 µM				> 100 µM		> 100 µM				
O=C(c1ccccc1Cl)n1oc2ccccc2c1=O		> 100 µM		> 100 µM		> 100 µM		> 100 µM		> 100 µM		> 100 µM		> 100 µM				> 100 µM		> 100 µM
Cc1ccc(S(=O)(=O)N2CCN(C=S)CC2)cc1		> 100 µM		> 100 µM		> 100 µM		> 100 µM		> 100 µM				> 100 µM		> 100 µM				
CC(C)(C)c1cc(CCCCCCCC2(CCCCCCCc3cc(C(C)(C)C)cc(C(C)(C)C)c3)OC(COCCOCCCCCC#N)C(COCCOCCCCCC#N)O2)cc(C(C)(C)C)c1 (configuration not stated)		> 100 µM		> 100 µM		> 100 µM		> 100 µM		> 100 µM				> 100 µM		> 100 µM				
O=[N+]([O-])c1ccc(C(Cl)C(Cl)c2ccc(C(Cl)C(Cl)c3ccc([N+](=O)[O-])cc3[N+](=O)[O-])cc2)c([N+](=O)[O-])c1 (configuration not stated)		1.69 µM	0.403 µM	5.96 µM and 1.72 µM	0.243 µM	1.77 µM and 0.681 µM	0.253 µM			1.75 µM				0.438 µM	0.216 µM	4.69 µM and 0.582 µM				
CCOC(=O)C(CCC(N)=O)(CCC(=O)OC)C(=O)OCC		> 100 µM		> 100 µM		> 100 µM		> 100 µM		> 100 µM				> 100 µM		> 100 µM				
CCOc1ccc(/C=C/c2cc(OC)c(OC)c(OC)c2)cc1		> 100 µM		> 100 µM		5.29 µM		> 25.8 µM		15.2 µM				> 100 µM		> 45.6 µM				
C#CC(=O)Nc1cccc2c1cc(C)n2-c1nc2c(c(NCc3ccccc3)n1)CCCC2	0.2 µM	0.461 µM	< 0.0132 µM	< 0.0184 µM	0.303 µM	1.13 µM	0.199 µM	0.438 µM	0.174 µM	0.415 µM	0.226 µM	1.23 µM	0.368 µM	3.45 µM			1.18 µM	2.54 µM	0.127 µM	0.645 µM
O=C1C(=C([O-])c2ccccc2)C(=O)c2ccccc21.O=C1C(=C([O-])c2ccccc2)C(=O)c2ccccc21.[Mn+2]	> 100 µM	> 100 µM	> 100 µM	> 100 µM	70.4 µM	> 100 µM														
